Data as given in PubChem BioAssay AID1645848.
≈ marks a conversion by molar mass, not a printed value.

Conditions: buffer; pH 7.4; 6.0 h; 150.0 µM

Structure (SMILES)	solubility kinetic
CC(=O)NC1CCN(c2nc(-c3ccc(Br)cc3)cs2)CC1	5.01 µg/mL (≈ 13.2 µM)
CCc1ccc2oc(=O)cc(CN3CCN(c4ccccc4F)CC3)c2c1	< 1 µg/mL
Cc1ccc(C)c(S(=O)(=O)NCC2CN(Cc3ccccc3)CCO2)c1 (stereo unspecified)	> 55 µg/mL
COc1ccccc1C(=O)Nc1ccccc1C(=O)Nc1cccc(C(F)(F)F)c1	< 1 µg/mL
Cc1cc(NS(=O)(=O)c2ccc(NC(=O)Cc3ccc(F)c(Cl)c3)cc2)no1	> 63 µg/mL
CC(C)CNc1ccnc(NCc2csc(-c3ccccc3)n2)n1	35.9 µg/mL (≈ 106 µM)
CC(CNC(=O)C1CCN(Cc2cc3ccccc3n2Cc2ccccc2)CC1)c1ccccc1 (stereo unspecified)	1.05 µg/mL (≈ 2.25 µM)
c1cn2cc(-c3ccc4cn[nH]c4c3)nc(Nc3ccc(N4CCOCC4)cc3)c2n1	< 1 µg/mL
CCc1cccc(NC(=O)CSc2nc3ccccc3nc2N2CCCCC2)c1	< 1 µg/mL
CC1=C(C(=O)Nc2ccc(Cl)cc2)C(c2ccccc2C)n2ncc(C(=O)Nc3ccc(C)cc3)c2N1 (stereo unspecified)	< 1 µg/mL
CC(C)(C)C(O)C(Oc1ccc(Cl)cc1)n1cncn1 (stereo unspecified)	> 44 µg/mL
O=C1CCCC2=C1C1(CCSCC1)N=C(Nc1nc3ccccc3o1)N2	< 1 µg/mL
CNCc1ccc(-c2cc(-c3nc(-c4ccc(S(=O)(=O)C(C)C)cc4)cnc3N)on2)cc1	27.3 µg/mL (≈ 59 µM)
COc1ccc(CCNc2ncnc3onc(C)c23)c(OC)c1	9.08 µg/mL (≈ 28.9 µM)
Cc1cn2c(N)c(Cl)cc(C(=O)NCC3CCN(CC(C)C)CC3)c2n1	39.2 µg/mL (≈ 104 µM)
COc1cccc(NS(=O)(=O)c2ccc(NCc3cccc(OC)c3O)cc2)c1	1.92 µg/mL (≈ 4.64 µM)
FC(F)(F)c1cc(-c2ccc(CNc3nc(-c4ccccc4C(F)(F)F)nc4ccsc34)cc2)ccn1	< 1 µg/mL
COC(=O)c1ccnc(-c2cc(C(=O)Nc3ccc(C4(N)CC4)cc3)ccn2)c1	12.8 µg/mL (≈ 32.8 µM)

Structure (SMILES)	solubility kinetic
Cc1ccc(/C=C/c2nc3ccccc3n2S(=O)(=O)c2cccc(Cl)c2)cc1	< 1 µg/mL
COc1c(O)ccc2c1CN1CCc3cc4c(cc3[C@@H]1C2)OCO4	19.6 µg/mL (≈ 60.2 µM)
CC1=C(C(=O)Nc2ccccc2)C(c2ccc[nH]2)n2ncnc2N1 (stereo unspecified)	9.06 µg/mL (≈ 28.3 µM)
CCc1ccc(NC(=O)c2[nH]c(C)c(C(C)=O)c2C)cc1S(=O)(=O)Nc1ccc(Br)cc1	7.72 µg/mL (≈ 14.9 µM)
CC(=O)Nc1ccc(C(=O)Nc2ccccc2N)cc1	> 40 µg/mL
O=C(Nc1nc(-c2ccccn2)cs1)c1cccc(-n2cnnn2)c1	1.1 µg/mL (≈ 3.15 µM)
COc1cccc(C(=O)Nc2nnc(S(=O)(=O)N3CCOCC3)s2)c1	> 57 µg/mL
O=S(=O)(Nc1ccc2ccccc2c1)c1ccc(NCc2ccc(Br)cc2O)cc1	< 1 µg/mL
COc1ccccc1-c1csc(N2CCC(C(N)=O)CC2)n1	3.08 µg/mL (≈ 9.7 µM)
Cc1ccc(S(=O)(=O)Nc2cnccc2C(=O)Nc2nc(-c3ccc(Cl)cc3)cs2)cc1	< 1 µg/mL
O=C(c1cc2ccccc2[nH]1)N1CCc2c(n(Cc3cccnc3)n(CCc3ccccc3)c2=O)C1	> 47 µg/mL
Cc1ccc2nc(-c3cc(NC(=O)c4ccc5c(c4)OCCO5)ccc3Cl)oc2c1	< 1 µg/mL
COc1cc(C(=O)Nc2nc(-c3ccccc3)cs2)ccc1NS(=O)(=O)c1ccc(C)cc1	< 1 µg/mL
COc1ccc(OC)c(-c2nnc3n2N=C(c2c(OC)cccc2OC)CS3)c1	2.63 µg/mL (≈ 6.37 µM)
CC(C)n1cc(-c2ccc(Oc3ccccc3)cc2)c2c(N)ncnc21	< 1 µg/mL
CCOC(=O)Cc1ccc(NC(=O)n2ncc3cc(Cl)ccc32)cc1	< 1 µg/mL
O=C(Nc1ccc2c(N3CCOCC3)ncnc2c1)c1cccc(Br)c1	9.48 µg/mL (≈ 22.9 µM)
COc1ccc(-c2ccc3nc(-c4cc(F)cc(F)c4F)oc3c2)c(OC)c1OC	< 1 µg/mL
